Measured values reported in patent US20080119558A1, “Drug for Inhibiting Production of Matrix Metalloprotease-9” (Japan Science And Technology Agency, priority 2002, published 2008).

Assays:
MMP-9 = experiment: Detection of MMP-2 and MMP-9 by gelatin zymography in conditioned media of cultured human foreskin keratinocytes; assay type: cell-based; details: HFKs; for concentration of LMB in the medium at which the production of MMP-9 is inhibited: 24 hours
Experimental: A foreskin of a neonate was treated at 4° C. for 16 hours by a disperse having a casein decomposition activity of 25.0 caseinolytic units/ml. Epidermal was peeled from dermis using a forceps, then, the epidermal was treated with 0.05% trypsin for 5 minutes. The separated human foreskin keratinocytes (HFKs) were allowed to incubate at 37° C. in a plate having a keratinocyte-SFM medium (manufactured by Invitrogen), and sub-cultured over three generations. Then, into four plates obtained by sub-culturing human foreskin keratinocytes (HFKs) over three generations, LMB was added so that the concentrations in the medium were 0 nM, 0.4 nM, 2 nM and 10 nM, respectively, further, allowed to incubate at 37° C. for 24 hours. Then, four conditioned media of the keratinocyte-SFM medium were collected from the four plates, and stored at −30° C. until use in the following detection of MMP-2 and MMP-9 by a gelatin zymography method.
Prior to detection of MMP-2 and MMP-9 by a gelatin zymography method, four conditioned media collected in <Culturing of human epidermal keratinocyte cell> were all allowed to incubate at 35° C. for 1 hour. Then, the above-mentioned conditioned media were dissolved in a solution of pH 7.4 containing 0.05 M Tris-HCl, 5 mM CaCl2, 1% SDS (sodium dodecyl-sulfate) and 5% glycerol, respectively, and the solutions were used as samples for a gelatin zymography method. MMP-2 and MMP-9 were separated from the samples by an SDS-PAGE method using 7.5% polyacrylamide gel containing 0.5% gelatin. After separation by an SDS-PAGE method, the separated gel was washed with a solution containing 2.5% Triton X-100 for 1 hour, to remove SDS. For allowing MMP-2 and MMP-9 separated in the separated gel to decompose gelatin in the separated gel, the separated gel was allowed to incubate at 35° C. for a given time in a buffer solution for reaction (standard conditions: 0.05 M Tris-HCl (pH 7.4)/0.15 M NaCl/5 MM CaCl2/0.02% NaN3). Staining of the separated gel was conducted using a staining solution containing 0.1% Amideblack B-10, and decolorization was conducted using a decolorization solution containing 10 vol % of acetic acid and 30 vol % of methanol.
(§1) Culturing of a human epidermal keratinocyte and detection of MMP-2 and MMP-9 by a gelatin zymography method were conducted by the same manner as in Example 1 except that LMB was added into four plates obtained by sub-culturing human foreskin keratinocytes (HFKS) over three generations, so that the concentrations in the medium were 0 nM, 0.4 nM, 2 nM and 10 nM, respectively, and a calcium chloride aqueous solution was added so that the four concentrations of Ca^+ in the medium were all 1.5 mM, instead of adding LMB into four plates obtained by sub-culturing human foreskin keratinocytes (HFKs) over three generations, so that the concentrations in the medium were 0 nM, 0.4 nM, 2 nM and 10 nM, respectively, in culturing of human epidermal keratinocyte.
as §1, with “(HFKs)” for “(HFKS)”, “TGF-β” for “a calcium chloride aqueous solution”, “TGF-β” for “Ca^+”, “1 ng/ml,” for “1.5 mM,”, “keratinocytes. […]” for “keratinocyte.”

mRNA of human MMP-9 gene = experiment: Detection of mRNA of human MMP-9 gene and human GAPDH gene by RT-PCR in human foreskin keratinocytes; assay type: cell-based; details: 10 nM LMB
Experimental: A foreskin of a neonate was treated at 4° C. for 16 hours by a disperse having a casein decomposition activity of 25.0 caseinolytic units/ml. Epidermal was peeled from dermis using a forceps, then, the epidermal was treated with 0.05% trypsin for 5 minutes. The separated human foreskin keratinocytes (HFKs) were allowed to incubate at 37° C. in a plate having a keratinocyte-SFM medium (manufactured by Invitrogen), and sub-cultured over three generations. Then, into two plates obtained by sub-culturing human foreskin keratinocytes (HFKS) over three generations, LMB was added so that the concentrations in the medium were 0 nM and 10 nM, respectively, further, allowed to incubate at 37° C. for 24 hours.
Extraction of all RNAs from cultured human foreskin keratinocytes (HFKs) was conducted according to a method of Wachi et al. (Wachi et al. (1995) FEBS Lett. 36B, 215-219), and the extracted all RNAs were stored at −80° C. in the form of solution having a concentration of 1 μg/ml. A RT-PCR method was conducted using TaKaRa RNA PCR kit (manufactured by TaKaRa). For amplifying 277 base pairs of cDNA for human MMP-9, a sense primer (SEQ ID No. 1) was used for the 5′ end situated at 116 to 136 base pairs, and an antisense primer (SEQ ID No. 2) was used for the 3′ end situated at 372 to 392 base pairs. For amplifying 478 base pairs of cDNA for human GAPDH, a sense primer (SEQ ID No. 3) was used for the 5′ end situated at 547 to 566 base pairs, and an antisense primer (SEQ ID No. 4) was used for the 3′ end situated at 1005 to 1024 base pairs. Reverse transcription of RNA was conducted by incubating at 42° C. for 1 hour. Incubation in PCR of cDNA obtained by reverse transcription was conducted according to the following temperature profile. Namely, for every one cycle, modification of cDNA was conducted at 94° C. for 2 minutes, annealing of a primer was conducted at 60° C. for 30 seconds, and synthesis of a DNA chain by a DNA polymerase was conducted at 72° C. for 1 minute. A solution obtained after 30 cycles was separated, and electrophoresis was conducted using an agarose gel containing ethidium bromide, and the resulted band was observed under ultraviolet ray.
Culturing of a human epidermal keratinocyte and detection of mRNA of a human MMP-9 gene and mRNA of a human GAPDH gene by a RT-PCR method were conducted by the same manner as in Example 6 except that LMB was added into two plates obtained by sub-culturing human foreskin keratinocytes (HFKs) over three generations, so that the concentrations in the medium were 0 nM and 10 nM, respectively, and a calcium chloride aqueous solution was added so that the two concentrations of Ca^+ in the medium were all 1.5 mM, instead of adding LMB into two plates obtained by sub-culturing human foreskin keratinocytes (HFKs) over three generations, so that the concentrations in the medium were 0 nM and 10 nM, respectively, in culturing of human epidermal keratinocytes. […]

MMP-9 promoter sequence = experiment: Measurement of MMP-9 promoter transcription activity by luciferase assay in human foreskin keratinocytes; assay type: cell-based; details: 10 nM LMB; for transcription activity of MMP-9: 24 hours; for Promoter activity suppressed to (fraction of no LMB addition): vector-1 containing KRE-M9 (−73 to +16)
Experimental: A foreskin of a neonate was treated at 4° C. for 16 hours by a disperse having a casein decomposition activity of 25.0 caseinolytic units/ml. Epidermal was peeled from dermis using a forceps, then, the epidermal was treated with 0.05% trypsin for 5 minutes. The separated human foreskin keratinocytes (HFKs) were allowed to incubate at 37° C. in a 24-well plate having a keratinocyte-SFM medium (manufactured by Life Technologies) containing 0.09 mM Ca^+, and sub-cultured over three generations.
A −73 to +16 base sequence containing KRE-M9 of an MMP-9 promoter sequence and a −56 to +16 base sequence containing no KRE-M9 were inserted into pGL3-basic vector (manufactured by Promega) which is a luciferase expression vector containing a luciferase gene according to a method of Kobayashi et al. (Kobayashi et al. (2001) EMBO Rep. 2, 604 to 608), to prepare vector-1 and vector-2.
Using the vector-1 and vector-2 and Fugene 6 (manufactured by Roche) which is a reagent for gene introduction, a vector-1 solution and a vector-2 solution each having a DNA concentration of 3 μg/1 ml were prepared, respectively. Then, the vector solution 1 was added to solutions in 12 wells and the vector solution 2 was added to solutions in the remaining 12 wells each at 37° C., of HFKs culture solutions in the 24-well plates obtained in <Culturing of human epidermal keratinocyte> and gene introduction was performed, further, 10 nM LMB was added to solutions in 6 wells to give a 6-well LMB added plate 1 and LMB was not added to solutions in the remaining 6 wells to give a 6-well LMB no-addition plate 1, of the 12 wells obtained by addition of the vector-1 solution, and 10 nM LMB was added to solutions in 6 wells to give a 6-well LMB added plate 2 and LMB was not added to solutions in the remaining 6 wells to give a 6-well LMB no-addition plate 2, of the 12 wells obtained by addition of the vector-2 solution, then, they were allowed to stand still for 3 hours. Gene introduction of a luciferase gene effected as described above induces the production of MMP-9 and the production of luciferase, and by measuring the light emitting intensity in a light emitting reaction by luciferase by a micro press counter, the production of MMP-9 can be monitored.
Measurement of the transcription activity was conducted by a luciferase assay. The activity of luciferase was measured by Luciferase assay system (manufactured by Promega). As a micro press counter, Microbeta (manufactured by Perkin-Elmer) was used. In this measurement, the total transcription activity after 12 hours was measured using 3 wells among 6 wells, further, the total transcription activity after 24 hours was measured using the remaining 3 wells, each using the 6-well LMB added plate 1, 6-well LMB no-addition plate 1, 6-well LMB added plate 2 and 6-well LMB no-addition plate 2. […] The standard deviation is shown by error bar. […]

[1] = tested on: skin of hairless mice (Hoes: HR-1); experiment: Ultraviolet B irradiated hairless mouse skin, external application, histology (hematoxylin and eosin); assay type: in vivo
Experimental: Ten 8-weeks old female hairless mice (Hoes: HR-1) were previously bred for 1 week. Five mice (mouse A1, mouse B1, mouse C1, mouse D1, mouse E1) were irradiated at the back with ultraviolet B (UV) of 300 mJ (about 3 MED (minimal erythema dose)), and five mice (mouse A2, mouse B2, mouse C2, mouse D2, mouse E2) were not irradiated with ultraviolet ray. Immediately after irradiation with ultraviolet ray and 24 hours after irradiation with ultraviolet ray, leptomycin B was administered by externally applying a solution of a concentration of 10 μg/ml (20 μM) to mouse B1 and mouse B2, a solution of a concentration of 1 μg/ml (2 μM) to mouse C1 and mouse C2, a solution of a concentration of 100 ng/ml (200 nM) to mouse D1 and mouse D2 and a solution of a concentration of 10 ng/ml (20 nM) to mouse E1 and mouse E2, each in an amount of 0.1 ml by a brush, as a solution containing leptomycin B dissolved in 70% ethanol. To mouse A1 and mouse A2, about 0.1 ml of 70% ethanol was applied by a brush. Then, skins were collected from mouse A1 to mouse E1 irradiated with ultraviolet ray 48 hours after irradiation and mouse A2 to mouse E2 not irradiated with ultraviolet ray. The collected skins were fixed with formalin and embedded in paraffin, then, the slices were stained with hematoxylin and eosin. Slices of skins collected from mouse A1, mouse B1, mouse C1, mouse D1 and mouse E1 and stained and slices of skins collected from mouse A2, mouse B2, mouse C2, mouse D2 and mouse E2 and stained were observed by ECLIPSE E1000M optical microscope (manufactured by NIKON), and the results are shown in FIG. 5. In FIG. 5, A1 to E1 correspond to slices of skins collected from mouse A1 to mouse E1 and stained, respectively, and A2 to E2 correspond to slices of skins collected from mouse A2 to mouse E2 and stained, respectively, and the length of a bar indicates 100 μm.

[2] = tested on: P388 cell, Lewis Landa carcinoma cell, B16 melanoma cell, Erich carcinoma cell; details: tumor cells transplanted to mouse; anti-tumor agent containing leptomycin B, parenteral or oral; cited from earlier work
[3] = UVB 300 mJ irradiated mice B1 to E1, external application 10 μg/ml to 10 ng/ml in 70% ethanol, 0.1 ml, at 0 and 24 hours, skin at 48 hours

In the case of `CCC(=C/[C@H](C)C/C=C/C(C)=C/[C@@H](C)C(=O)[C@@H](C)[C@H](O)[C@@H](C)C/C(C)=C/C(=O)O)/C=C/[C@@H]1OC(=O)C=C[C@@H]1C` [LMB, Leptomycin B], the “specificity of inhibition of the production of MMP-9 as compared with MMP-2” value (MMP-9; gelatin zymography, FIG. 1) is reported as “inhibits the production of MMP-9 more specifically as compared with MMP-2”, the “concentration of LMB in the medium at which the production of MMP-9 is inhibited” value (from here on “concentration of LMB … of MMP-9 is inhibited”) (MMP-9; stimulating differentiation by TGF-β 1 ng/ml, FIG. 1 (C)) is reported as ≥ 2 nM and the “concentration of LMB … of MMP-9 is inhibited” value (MMP-9; stimulating differentiation by calcium at a high concentration (1.5 mM), FIG. 1 (B)) is reported as ≥ 2 nM. For the same compound, the “concentration of LMB … of MMP-9 is inhibited” value (MMP-9; stimulating inflammation by IL-1α 10^−10 M, FIG. 1 (E)) was ≥ 2 nM, the “concentration of LMB … of MMP-9 is inhibited” value (MMP-9; stimulating inflammation by TNF-α 10 ng/ml, FIG. 1 (D)) was ≥ 2 nM and the “concentration of LMB … of MMP-9 is inhibited” value (MMP-9; under no stimulation, FIG. 1 (A)) was ≥ 2 nM. The “production of MMP-9 (mRNA) as compared with GAPDH” value (shortened to “production … compared with GAPDH”) (mRNA of human MMP-9 gene; stimulation with IL-1α 10^−10 M, Sample 9 and 10 in FIG. 2) was “inhibited”, the “production … compared with GAPDH” value (mRNA of human MMP-9 gene; stimulation with TGF-β 1 ng/ml, Sample 5 and 6 in FIG. 2) was “inhibited” and the “production … compared with GAPDH” value (mRNA of human MMP-9 gene; stimulation with TNF-α 10 ng/ml, Sample 7 and 8 in FIG. 2) was “inhibited”. For the same compound, the “production … compared with GAPDH” value (mRNA of human MMP-9 gene; stimulation with calcium at a high concentration (1.5 mM), Sample 3 and 4 in FIG. 2) was “inhibited”, the “production … compared with GAPDH” value (mRNA of human MMP-9 gene; under no stimulation, 24 hours, Sample 1 and 2 in FIG. 2) was “inhibited” and the “transcription activity of MMP-9” value (MMP-9 promoter sequence; base sequence 1 (−80 to +16, KRE-M9 and TRE), FIG. 4 (A)) was “suppressed”. The “transcription activity of MMP-9” value (MMP-9 promoter sequence; base sequence 2 (4-base substitution of KRE-M9 in base sequence 1), FIG. 4 (A)) was “suppressed”, the “transcription activity of MMP-9” value (MMP-9 promoter sequence; base sequence 6 (base substitution of both KRE-M9 and TRE), FIG. 4 (B)) was “suppressed” and the “Promoter activity suppressed to (fraction of no LMB addition)” value (MMP-9 promoter sequence; 12 hours after gene introduction) was “about one-fifth”. The “Promoter activity suppressed to (fraction of no LMB addition)” value (MMP-9 promoter sequence; 24 hours after gene introduction) was “about one-seventh”, the “inflammatory cell infiltration in dermis and subcutaneous tissue” value [1, 3] was “suppressed” and the keratinization of epidermal [1, 3] was “normal keratinization is manifested in epidermal in a concentration-dependent manner”. The “change of skin not irradiated with ultraviolet ray” value ([1]; mice B2 to E2 not irradiated, external application 10 μg/ml to 10 ng/ml in 70% ethanol) was “significant change was not found” and the anti-tumor action [2] was “strong anti-tumor action”.
